Several values for one entry are separate records, joined by “and”; a condition that tells them apart may be missing. Equal entries are not always repeated.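 The compound was tested at five concentrations on cells cultured in 96-well plates, with a 48-hour exposure period. The concentration for 50% growth inhibition is given as GI50. TGI denotes the concentration required for complete inhibition of growth.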
Experiments:
Test in all cases: inhibition of tumour cell growth, NCI panel, 48 h
[1] = test system: HCT-116 colon
[2] = test system: SR leukemia
[3] = test system: LOX IMVI melanoma
[4] = test system: HL-60(TB) leukemia
[5] = test system: OVCAR-8 ovarian
[6] = test system: A549 NSCLC
[7] = test system: KM12 colon
[8] = test system: HCT-15 colon
[9] = test system: HCC-2998 colon
[10] = test system: SK-MEL-28 melanoma

Compound	GI50 [1]	TGI [1]	GI50 [2]	TGI [2]	GI50 [3]	TGI [3]	GI50 [4]	TGI [4]	GI50 [5]	TGI [5]	GI50 [6]	TGI [6]	GI50 [7]	TGI [7]	GI50 [8]	TGI [8]	GI50 [9]	TGI [9]	GI50 [10]	TGI [10]
CN(C)c1ccc(/C=C/C(=O)c2ccc(Nc3nc(Nc4ccc(F)cc4)nc(Nc4ccc(Cl)cc4)n3)cc2)cc1	3.3 µM	15.5 µM	1.06 µM	3.67 µM	8.93 µM	47.2 µM	1.75 µM	5.34 µM	1.99 µM	15.1 µM	5.03 µM	35.1 µM	5.75 µM	23.2 µM	4.66 µM	> 100 µM	15.4 µM	> 100 µM	3.88 µM	52.7 µM
COc1ccc(N2CCN(CC(=O)N3CCN(c4nnc(-c5ccc(Cl)cc5)c(-c5ccc(Cl)cc5)n4)CC3)CC2)cc1	3.96 µM	> 100 µM	2.56 µM	8.65 µM	7.76 µM	> 100 µM	14.3 µM	> 100 µM	22.1 µM	> 100 µM	11.8 µM	> 100 µM	4.86 µM	> 100 µM	6.8 µM	> 100 µM	9.94 µM	> 100 µM	96.8 µM	> 100 µM
CC[N+]1(C)CCC(O)(/C=C/c2ccccc2)C(C(=O)/C=C/c2ccccc2)C1 (stereo not drawn)	–	38 µM	–	6.68 µM	–	7.79 µM	–	8.48 µM	–	43 µM	–	45.7 µM	–	10.2 µM	–	15.5 µM	–	30.8 µM	–	18.9 µM
COc1ccc(-c2nccn2-c2cc(OC)c(OC)c(OC)c2)cc1	1.9 µM	> 100 µM	> 100 µM	> 100 µM	8.76 µM	> 100 µM	25.4 µM	> 100 µM	12 µM	> 100 µM	4.94 µM	> 100 µM	0.451 µM	> 100 µM	1.16 µM	> 100 µM	1.09 µM	39.9 µM	20.6 µM	> 100 µM
CCOC(=O)c1ccccc1NC(c1ccccc1)c1ccc2cccnc2c1O (stereo not drawn)	3.41 µM	80.1 µM	2.02 µM	10.3 µM	2.45 µM	11 µM	1.97 µM	6.63 µM	3.31 µM	52.2 µM	3.3 µM	> 100 µM	3.99 µM	> 100 µM	2.11 µM	23.5 µM	5.77 µM	> 100 µM	3.19 µM	> 100 µM
COc1ccc(/C=C2\CN(Cc3cn(CCCNc4ccnc5cc(Cl)ccc45)nn3)C/C(=C\c3ccc(OC)cc3)C2=O)cc1	2.8 µM	12.4 µM	1.69 µM	7.47 µM	3.98 µM	18.5 µM	3.27 µM	18.2 µM	2.06 µM	5.64 µM	5.07 µM	19.5 µM	1.66 µM	3.39 µM	1.83 µM	5.14 µM	13.8 µM	27.9 µM	14 µM	28 µM
C=CC(=O)N1CC[C@@H](Oc2nc(Nc3ccc(N4CCC(N5CCN(C)CC5)CC4)cc3)c(C(N)=O)nc2CC)C1	> 100 µM	> 100 µM	> 100 µM	> 100 µM	> 100 µM	> 100 µM	> 100 µM	> 100 µM	> 100 µM	> 100 µM	> 100 µM	> 100 µM	> 100 µM	> 100 µM	> 100 µM	> 100 µM	> 100 µM	> 100 µM	> 100 µM	> 100 µM
COc1ccc(/C(C)=C(\c2ccc(Cl)cc2)c2ccc(OCCN3CCCCC3)cc2)cc1F	2.04 µM	5.14 µM	1.8 µM	> 16.7 µM	2.42 µM	4.64 µM	2.85 µM	6.82 µM	4.11 µM	12.4 µM	4.43 µM	> 16.7 µM	1.97 µM	6.23 µM	0.943 µM	3.37 µM	3.21 µM	7.14 µM	2.67 µM	5.3 µM
COc1c(C)cnc(Cn2cnc3c(Cl)nc(N)nc32)c1C	0.12 µM	> 100 µM	0.117 µM	> 100 µM	0.29 µM	4.05 µM	0.245 µM	–	0.323 µM	> 100 µM	0.179 µM	> 100 µM	0.0854 µM	–	0.107 µM	26.7 µM	0.457 µM	10.7 µM	0.546 µM	> 83.4 µM
O=C1C2=C(Nc3cc([N+](=O)[O-])ccc3N2)OC1c1c[nH]c2ccc(COc3ccccc3)cc12 (stereo not drawn)	–	> 100 µM	–	> 100 µM	–	> 100 µM	–	17.7 µM	–	> 100 µM	–	> 100 µM	–	> 100 µM	–	> 100 µM	–	> 100 µM	–	> 100 µM
CCN(CC)CCCC(C)NC(=S)N/N=C(\C)c1ccccn1 (stereo not drawn)	2.3 µM	> 100 µM	2.45 µM	> 100 µM	2.63 µM	> 100 µM	1.39 µM	6.02 µM	2.87 µM	> 100 µM	3.75 µM	> 100 µM	4.02 µM	> 100 µM	2.49 µM	> 100 µM	3.52 µM	> 100 µM	16.9 µM	> 100 µM
CC(CCC/C=C/CCCN(C)C(=N)N)CC(C)C1OC(=O)C(C)C(O)/C=C/C(C)C(O)C(C)C(O)C(C)C(O)CCCC(O)CC2(O)OC(CC(OC(=O)CC(=O)O)CC(O)CC(O)C(C)C(O)/C=C/C=C/C1C)CC(O)C2O (stereo not drawn)	2.52 µM and 9.15 µg/mL	6.13 µM and 24.4 µg/mL	2.59 µM and 3.67 µg/mL	4.88 µM and 47 µg/mL	3.17 µM and 12 µg/mL	11.3 µM and 29 µg/mL	6.5 µg/mL	21.2 µg/mL	2.54 µM and 7.93 µg/mL	5.88 µM and 19.8 µg/mL	2.45 µM and 4.42 µg/mL	5.63 µM and 16.8 µg/mL	1.88 µM and 2.62 µg/mL	3.37 µM and 9.79 µg/mL	2.35 µM and 11.9 µg/mL	5.33 µM and 28.9 µg/mL	3.18 µM and 10.9 µg/mL	12.1 µM and 23.4 µg/mL	2.04 µM and 2.59 µg/mL	4.05 µM and 8.56 µg/mL
